In article PMC3199943, “Screening the MayBridge Rule of 3 Fragment Library for Compounds That Interact with the Trypanosoma brucei myo-Inositol-3-Phosphate Synthase and/or Show Trypanocidal Activity” (Molecular Biology International, 2011):
Structures can show the parent of a compound that is named as a salt. Where two headings read alike, the source gives them in different places.

Assays:
HeLa cells = experiment: cells; settings: for viability at 500 µM / CC50: Homo sapiens, HeLa; for viability at 500 µM: 65 h; for CC50: read-out: HeLa ED50; for HeLa Cells Alamar Blue: Supplementary Table 1
Method: (§1) Cytotoxic effects against HeLa and A549 cells were determined in a similar manner. Briefly, the cells were cultured in DMEM supplemented with 10% FCS and 2 mM L-Glutamine. Cells were plated at initial cell concentration of 2 × 10^4 cells/well and incubated with the compounds for ~65 hours prior to addition of Alamar Blue solution for a further 5 hours.

A549 cells = experiment: Cytotoxicity against A549 cells, Alamar Blue; type: cell-based; settings: Supplementary Table 1, compound 0.5 mM, percentage of controls (n=1); for viability at 500 µM: Homo sapiens, A549, 65 h
Method: as §1

[1] = read-out: HeLa Cells Alamar Blue
[2] = compound 0.5 mM, percentage of controls, mean ± SD (n=3) or SE (n=2)

| Structure (SMILES) | viability at 500 µM (HeLa cells; [1]) | viability at 500 µM (A549 cells) | also measured |
| --- | --- | --- | --- |
| CN(C(N)=S)c1ccccc1 [compound 325, N‐methyl‐N‐phenylthiourea] | 33.9 ± 11.6% | 82.7% | CC50 (HeLa cells): 415 ± 24 µM |
| Cc1ccccc1NC(N)=S [compound 326, N‐(2‐methylphenyl)thiourea] |  | 125% | viability at 500 µM (HeLa cells; read-out: HeLa Cells Alamar Blue, Supplementary Table 1, compound 0.5 mM, percentage of controls, mean ± SD (n=3) or SE (n=2)): 111 ± 8.5% |
| CC12CCC(CC1=NO)C2(C)C (stereo not drawn) [compound 332, 1,7,7‐trimethylbicyclo[2.2.1]heptan‐2‐one oxime] |  |  | HeLa Cells Alamar Blue (HeLa cells; [2]): 110.6 ± 8.3 percentage of controls; A549 Cells Alamar Blue (A549 cells): 93.9 percentage of controls |
| NC(=O)NCc1ccc(F)cc1 [compound 334, N‐(4‐fluorobenzyl)urea] | 112 ± 4.7% | 91.8% |  |
| N#Cc1ccccc1-n1cccc1 [compound 336, 2‐(1H‐pyrrol‐1‐yl)benzonitrile] | 68.5 ± 16.3% | 134% |  |
| N#Cc1cccc(-c2ccco2)c1 [compound 338, 3‐(2‐furyl)benzonitrile] | 18.5 ± 15.2% | 57.8% |  |
| Oc1nc2ccc(Cl)cc2o1 [compound 342, 6‐chloro‐1,3‐benzoxazol‐2‐ol] | 94.3 ± 6.5% | 73.9% |  |
| N#Cc1ccc(-c2ccco2)nc1 [compound 344, 6‐(2‐furyl)nicotinonitrile] | 48.9 ± 5% | 104% |  |
| O=C(O)C1CC2CC1CCC2O (stereo not drawn) [compound 345, 2‐hydroxybicyclo[3.2.1]octane‐6‐carboxylic acid] |  |  | HeLa Cells Alamar Blue (HeLa cells; [2]): 87.4 ± 13 percentage of controls; A549 Cells Alamar Blue (A549 cells): 127 percentage of controls |
| Nc1cccc(-c2cccnc2)c1 [compound 346, 3‐pyridin‐3‐ylaniline] | 73.9 ± 6.1% | 98.5% |  |
| Nc1ccc(-c2cccnc2)cc1 [compound 347, 4‐pyridin‐3‐ylaniline] | 79.3 ± 2.8% | 113% |  |
| Nc1ccccc1-c1cccnc1 [compound 348, 2‐pyridin‐3‐ylaniline] | 18.2 ± 10% | 85.3% | CC50 (HeLa cells): 21.8 ± 1.8 µM |
| Cc1ccc(C(=O)O)cc1Cl [compound 351, 3‐chloro‐4‐methylbenzoic acid] | 88.2 ± 17.9% | 112% |  |
| COC(=O)c1ccccc1Cl [compound 352, methyl 2‐chlorobenzoate] | 95.8 ± 19% | 76.4% |  |
| COC(=O)c1scc(C)c1N [compound 354, methyl 3‐amino‐4‐methylthiophene‐2‐carboxylate] |  |  | HeLa Cells Alamar Blue (HeLa cells; [2]): 72.8 ± 8.6 percentage of controls; A549 Cells Alamar Blue (A549 cells): 32.3 percentage of controls |
| Cc1ccccc1S(N)(=O)=O [compound 355, 2‐methylbenzene‐1‐sulfonamide] | 89.1 ± 16.6% | 87.9% |  |
| CCCCCSc1nnc[nH]1 [compound 357, 3‐(pentylthio)‐4H‐1,2,4‐triazole] | 64.5 ± 8.6% | 45.3% |  |
| N#Cc1cnccc1C(F)(F)F [compound 358, 4‐(trifluoromethyl)nicotinonitrile] | 103 ± 1.7% | 129% |  |
| OCc1scc2c1OCCO2 [compound 361, 2,3‐dihydrothieno[3,4‐b][1,4]dioxin‐5‐ylmethanol] |  |  | HeLa Cells Alamar Blue (HeLa cells; [2]): 68.5 ± 12.9 percentage of controls; A549 Cells Alamar Blue (A549 cells): 93.7 percentage of controls |
| NCc1ccccc1-n1cccc1 [compound 363, [2‐(1H‐pyrrol‐1‐yl)phenyl]methylamine] | 42.6 ± 11.7% | 45.6% |  |
| NCc1cccc(-n2cccc2)c1 [compound 364, 3‐(1H‐pyrrol‐1‐yl)benzylamine] | 29.5 ± 12.9% | 56.9% | CC50 (HeLa cells): 40.4 ± 1.8 µM |
| NCc1ccc(-n2cccc2)cc1 [compound 365, 4‐(1H‐pyrrol‐1‐yl)benzylamine] | 50.9 ± 11% | 94.4% | CC50 (HeLa cells): 71.8 ± 3.7 µM |

| Structure (SMILES) | viability at 500 µM (HeLa cells; [1]) | viability at 500 µM (A549 cells) | also measured |
| --- | --- | --- | --- |
| CNCc1ccc2ncccc2c1 [compound 366, N‐methyl‐N‐(quinolin‐6‐ylmethyl)amine] | 64.6 ± 11.4% | 74.6% |  |
| CC(=O)c1ccc(F)c(Cl)c1 [compound 367, 1‐(3‐chloro‐4‐fluorophenyl)ethan‐1‐one] | 98.7 ± 6.5% | 58.8% |  |
| Nc1ccc(Cn2ccnc2)cc1 [compound 375, 4‐(1H‐imidazol‐1‐ylmethyl)aniline] | 88 ± 18.8% | 90.7% |  |
| Cn1nc(-c2ccccc2)cc1N [compound 376, 1‐methyl‐3‐phenyl‐1H‐pyrazol‐5‐amine] | 82.6 ± 4.6% | 64.7% |  |
| CSc1ccc(Cl)cc1N [compound 382, 5‐chloro‐2‐(methylthio)aniline] | 110 ± 13.3% | 60.7% |  |
| Cc1onc(-c2ccccc2)c1N [compound 384, 5‐methyl‐3‐phenyl‐4‐isoxazolamine] | 80.8 ± 13.4% | 75.5% |  |
| OCc1ccc(-n2cccn2)cc1 [compound 385, [4‐(1H‐pyrazol‐1‐yl)phenyl]methanol] | 83.4 ± 12.4% | 118% |  |
| OCc1ccc(-n2ccnc2)cc1 [compound 386, [4‐(1H‐imidazol‐1‐yl)phenyl]methanol] | 103 ± 15.3% | 101% |  |
| C#Cc1ccc(OCCCC)cc1 [compound 388, 1‐butoxy‐4‐eth‐1‐ynylbenzene] | 107 ± 8% | 114% |  |
| OCc1ncoc1-c1ccccc1 [compound 397, (5‐phenyl‐1,3‐oxazol‐4‐yl)methanol] | 18.2 ± 7.9% | 56.4% |  |
| Cn1ccc2ccc(C(=O)O)cc21 [compound 398, 1‐methyl‐1H‐indole‐6‐carboxylic acid] | 109 ± 10.3% | 101% |  |
| CNCc1nn(C)c2ccccc12 [compound 401, N‐methyl‐N‐[(1‐methyl‐1H‐indazol‐3‐yl)methyl]amine] |  |  | HeLa Cells Alamar Blue (HeLa cells; [2]): 92.5 ± 7.4 percentage of controls; A549 Cells Alamar Blue (A549 cells): 91.7 percentage of controls |
| NCc1cc(Cl)cc(Cl)c1 [compound 405, 3,5‐dichlorobenzylamine] | 77.7 ± 13.9% | 84.1% |  |
| OCc1ccccc1C(F)(F)F [compound 407, [2‐(trifluoromethyl)phenyl]methanol] | 104 ± 13.9% | 90.2% |  |
| Nc1ccc(N2CCCCC2)cc1 [compound 413, 4‐piperidinoaniline] | 11.6 ± 5.1% | 53.2% |  |
| ON=C1CN2CCC1CC2 [compound 416, quinuclidin‐3‐one oxime hydrochloride] | 107 ± 9.6% | 109% |  |
| Nc1cccc(OC(F)(F)F)c1 [compound 419, 3‐(trifluoromethoxy)aniline] | 105 ± 11.1% | 85% |  |
| O=C1N[C@@H](Cc2ccccc2)CO1 [compound 421, (S)‐4‐BENZYL‐2‐OXAZOLIDINONE] | 86 ± 5.1% | 80.2% |  |
| COC(=O)C1Cc2ccccc2N1 (stereo not drawn) [compound 422, methyl 2‐indolinecarboxylate] | 11.1 ± 5.7% | 40.1% |  |
| Nc1nc(-c2ccccc2)ns1 [compound 423, 3‐phenyl‐1,2,4‐thiadiazol‐5‐amine] | 82.7 ± 3.9% | 52.7% |  |
| Nc1nsc(-c2ccccc2)n1 [compound 424, 5‐phenyl‐1,2,4‐thiadiazol‐3‐amine] | 62.2 ± 15.4% | 60.1% |  |
